According to patent US20210115104A1, “AMYLIN ANALOGUES” (Zealand Pharma A/S, priority 2015, published 2021):
*1 amine or outer side, *2 acyl side, *3 side chain or, on linkers, in order; H or OH if unused. Where a SMILES comes first, the peptide text is derived from it. Bridges are numbered along the chain shown (N, C = ends). [ ]: non-standard residue; d: D form. The star is where a group is joined. C20 diacid = O=C(O)CCCCCCCCCCCCCCCCCCC(=O)*; γGlu = O=C(O)[C@H](CCC(=O)[*:2])N[*:1]; Hyp = O=C(O)[C@@H]1C[C@@H](O)CN1; NMeI = CC[C@H](C)[C@H](NC)C(=O)O; Aad = N[C@@H](CCCC(=O)O)C(=O)O; Orn = NCCC[C@H](N)C(=O)O; Sar = CNCC(=O)O

Key:
[1] = target: T1, human calcitonin receptor (hCTR2) (Homo sapiens, UniProt P30988); experiment: hCTR2 cAMP assay (AlphaScreen) in COS7 cells; assay type: cell-based; conditions: cAMP induction, COS7 cells expressing hCTR2; Table 1; read-out: hCTR2 EC50
T1 construct: expressed in transfected cells
T1 sequence (P30988 25-474): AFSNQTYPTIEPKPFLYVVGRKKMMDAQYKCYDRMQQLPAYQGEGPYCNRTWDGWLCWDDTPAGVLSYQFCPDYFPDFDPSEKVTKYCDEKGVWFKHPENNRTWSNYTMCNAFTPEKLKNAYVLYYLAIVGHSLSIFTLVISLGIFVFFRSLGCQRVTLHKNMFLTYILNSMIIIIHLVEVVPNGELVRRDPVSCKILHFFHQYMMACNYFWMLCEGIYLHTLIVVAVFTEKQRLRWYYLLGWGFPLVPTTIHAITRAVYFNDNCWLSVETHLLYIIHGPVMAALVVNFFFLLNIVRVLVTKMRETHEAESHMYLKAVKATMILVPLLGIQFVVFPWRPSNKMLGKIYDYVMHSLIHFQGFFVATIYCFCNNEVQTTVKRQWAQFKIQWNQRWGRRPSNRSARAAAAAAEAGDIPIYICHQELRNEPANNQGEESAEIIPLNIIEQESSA
Outline: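 Stable hCTR2 clone in RAMP-naïve COS7 cells stimulated 15 min at 37 °C with increasing peptide concentrations in Tyrode buffer pH 7.4 containing IBMX and 0.1% casein. cAMP in lysates measured by AlphaScreen; EC50 from 4-parameter logistic fit.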

[2] = target: T2, human amylin receptor 3 (hAMYR3), hCTR2 co-expressed with hRAMP3 (Homo sapiens, UniProt O60896+P30988); experiment: hAMYR3 cAMP assay (AlphaScreen) in COS7 cells; assay type: cell-based; conditions: cAMP induction, COS7 cells expressing hAMYR3; Table 1; read-out: hAMYR3 EC50
T2 construct: expressed in transfected cells
T2 sequence (P30988 25-474): T1 sequence (P30988 25-474)
T2 sequence (O60896 24-148 partner): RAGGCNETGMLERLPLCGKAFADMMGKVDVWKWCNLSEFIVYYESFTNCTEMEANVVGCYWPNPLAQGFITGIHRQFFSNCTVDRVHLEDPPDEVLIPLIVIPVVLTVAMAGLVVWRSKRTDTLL
Source text: The cell line COS7, originating from African Green Monkey kidney fibroblast cells, was used for establishment of the stable cell lines described below. The COS7 cellular background was used due to it being RAMP naïve, and as such it provides the best available system for testing of the monomeric hCTR and different heterodimeric amylin receptor subtypes functionally generated by introduction of the individual RAMPs.
A cell line expressing the human amylin receptor 3 (hAMYR3) was generated in the COS7 cellular background as stable clones. In brief, hCTR2 (GI:4502547) and hRAMP3 (GI:118572586) were amplified by PCR using primers encoding terminal restriction sites for subcloning. The 5′-end primers additionally encoded a near Kozak consensus sequence to ensure efficient translation. The fidelity of the DNA encoding the receptor was confirmed by DNA sequencing. The PCR products encoding the receptor were subcloned into a proprietary tri-cistronic mammalian expression vector with RAMP3, hCTR2 and neomycin (G418) resistance marker. The mammalian expression vector encoding the receptor was transfected into COS7 cells by a standard liposome transfection method. 48 hours post-transfection, cells were seeded for limited dilution cloning and selected with 1 mg/ml G418 in the culture medium. After 3 weeks, surviving colonies of hAMY3R-expressing cells were picked, propagated and tested in the amylin efficacy assay as described in Example 3 below. The functional generation of the amylin receptor phenotype was verified in the efficacy assay by a left-shifted efficacy response to amylin relative to monomeric calcitonin receptor, and one hAMYR3-expressing clone was chosen for compound profiling.
In vitro activity of test peptides at the hCTR2 and hAMYR3 receptors was assessed by measuring the induction of cAMP following stimulation of the receptor using the AlphaScreen® cAMP Assay kit from Perkin-Elmer.
Briefly, COS7 cells expressing hCTR2 (see Example 2, above) were seeded at 30-40,000 cells per well in 96-well microtiter plates coated with 0.01% poly-L-lysine, and grown for 1 day in culture in 100 μl growth medium [DMEM, 10% FCS, Penicillin (100 IU/ml), Streptomycin (100 μg/ml)]. On the day of analysis, growth medium was removed and the cells were washed once with 200 μl Tyrode buffer [Tyrode's Salts (9.6 g/I), 10 mM HEPES, pH 7.4]. Cells were incubated in 100 μl Tyrode buffer containing increasing concentrations of test peptides, 100 µM IBMX and 0.1% casein for 15 min at 37° C. The reaction was stopped by carefully decanting off the compound/buffer medium and replacing it with lysis/detection buffer (80 μl 0.1% w/v BSA, 5 mM HEPES, 0.3% v/v Tween-20 in deionized water). After incubation at room temperature for 10 min., the cAMP content of the resulting cell lysate was estimated according to the AlphaScreen® cAMP Assay manufacturer's instructions. EC50 values were estimated by computer-aided curve fitting using the 4-parameter logistic (4PL) non-linear model.

SMILES | EC50 [1] [nM] | EC50 [2] [nM]
CC[C@H](C)[C@@H](C(=O)N[C@@H](CC(C)C)C(=O)N[C@@H](CO)C(=O)N[C@@H](CO)C(=O)N[C@H](C(=O)N[C@@H](CCC(=O)O)C(=O)N[C@H](C(=O)NCC(=O)N[C@@H](CO)C(=O)N[C@@H](Cc1ccccc1)C(=O)N[C@H](C(=O)N1CCC[C@H]1C(N)=O)[C@@H](C)O)C(C)C)[C@@H](C)O)N(C)C(=O)[C@H](C)NC(=O)CN(C)C(=O)[C@H](Cc1ccccc1)NC(=O)[C@H](CO)NC(=O)[C@H](CO)NC(=O)[C@H](CCCNC(=N)N)NC(=O)[C@H](CCC(N)=O)NC(=O)[C@H](CC(C)C)NC(=O)[C@H](Cc1ccccc1)NC(=O)[C@H](Cc1c[nH]cn1)NC(=O)[C@H](C)NC(=O)[C@H](CC(C)C)NC(=O)[C@H](CCCNC(=N)N)NC(=O)[C@H](CCC(=O)O)NC(=O)[C@@H](NC(=O)[C@H](C)NC(=O)[C@@H]1CSSC[C@H](NC(=O)[C@H](CCCNC(=N)N)NC(=O)CC[C@H](NC(=O)CCCCCCCCCCCCCCCCCCC(=O)O)C(=O)O)C(=O)NCC(=O)N[C@@H]([C@@H](C)O)C(=O)N[C@@H](C)C(=O)N[C@@H]([C@@H](C)O)C(=O)N1)[C@@H](C)O [Compound 39, [19CD]-isoGlu-R-C( )-GTAT-C( )-ATERLAHFLQRSSF-Gly(Me)-A-Ile(Me)-LSSTEVGSFTP-NH2] ({C20 diacid-γGlu}-RCGTATCATERLAHFLQRSSF[Sar]A[NMeI]LSSTEVGSFTP-NH2; disulfide 2-7) | 0.16 | 0.22
CC[C@H](C)[C@@H](C(=O)N[C@@H](CC(C)C)C(=O)N[C@@H](CO)C(=O)N[C@@H](CO)C(=O)N[C@H](C(=O)N[C@@H](CCC(=O)O)C(=O)N[C@H](C(=O)NCC(=O)N[C@@H](CO)C(=O)N[C@@H](Cc1ccccc1)C(=O)N[C@H](C(=O)N1CCC[C@H]1C(N)=O)[C@@H](C)O)C(C)C)[C@@H](C)O)N(C)C(=O)[C@H](C)NC(=O)CN(C)C(=O)[C@H](Cc1ccccc1)NC(=O)[C@H](CO)NC(=O)[C@H](CO)NC(=O)[C@H](CCCNC(=N)N)NC(=O)[C@H](CC(N)=O)NC(=O)[C@H](CC(C)C)NC(=O)[C@H](Cc1ccccc1)NC(=O)[C@H](Cc1c[nH]cn1)NC(=O)[C@H](C)NC(=O)[C@H](CC(C)C)NC(=O)[C@H](CCCNC(=N)N)NC(=O)[C@H](CCC(=O)O)NC(=O)[C@@H](NC(=O)[C@H](C)NC(=O)[C@@H]1CSSC[C@H](NC(=O)[C@H](CCCNC(=N)N)NC(=O)CC[C@H](NC(=O)CCCCCCCCCCCCCCCCCCC(=O)O)C(=O)O)C(=O)NCC(=O)N[C@@H]([C@@H](C)O)C(=O)N[C@@H](C)C(=O)N[C@@H]([C@@H](C)O)C(=O)N1)[C@@H](C)O [Compound 40, [19CD]-isoGlu-R-C( )-GTAT-C( )-ATERLAHFLNRSSF-Gly(Me)-A-Ile(Me)-LSSTEVGSFTP-NH2] ({C20 diacid-γGlu}-RCGTATCATERLAHFLNRSSF[Sar]A[NMeI]LSSTEVGSFTP-NH2; disulfide 2-7) | 0.12 | 0.19
CC[C@H](C)[C@@H](C(=O)N[C@@H](CC(C)C)C(=O)N[C@@H](CO)C(=O)N[C@@H](CO)C(=O)N[C@H](C(=O)N[C@@H](CCC(=O)O)C(=O)N[C@H](C(=O)NCC(=O)N[C@@H](CO)C(=O)N[C@@H](CCCN)C(=O)N[C@H](C(=O)N1C[C@H](O)C[C@H]1C(N)=O)[C@@H](C)O)C(C)C)[C@@H](C)O)N(C)C(=O)[C@H](C)NC(=O)CN(C)C(=O)[C@H](Cc1ccccc1)NC(=O)[C@H](CO)NC(=O)[C@H](CO)NC(=O)[C@H](CCCNC(=N)N)NC(=O)[C@@H](NC(=O)[C@H](CC(C)C)NC(=O)[C@H](Cc1ccccc1)NC(=O)[C@H](CCCC(=O)O)NC(=O)[C@H](C)NC(=O)[C@H](CC(C)C)NC(=O)[C@H](CCCNC(=N)N)NC(=O)[C@H](CCC(=O)O)NC(=O)[C@@H](NC(=O)[C@H](C)NC(=O)[C@@H]1CSSC[C@H](NC(=O)[C@H](CCCNC(=N)N)NC(=O)CC[C@H](NC(=O)CCCCCCCCCCCCCCCCCCC(=O)O)C(=O)O)C(=O)NCC(=O)N[C@@H]([C@@H](C)O)C(=O)N[C@@H](C)C(=O)N[C@@H]([C@@H](C)O)C(=O)N1)[C@@H](C)O)[C@@H](C)O [Compound 44, [19CD]-isoGlu-R-C( )-GTAT-C( )-ATERLA-Aad-FLTRSSF-Gly(Me)-A-Ile(Me)-LSSTEVGS-Orn-T-Hyp-NH2] ({C20 diacid-γGlu}-RCGTATCATERLA[Aad]FLTRSSF[Sar]A[NMeI]LSSTEVGS[Orn]T[Hyp]-NH2; disulfide 2-7) | 0.2 | 0.3
CC[C@H](C)[C@@H](C(=O)N[C@@H](CC(C)C)C(=O)N[C@@H](CO)C(=O)N[C@@H](CO)C(=O)N[C@H](C(=O)N[C@@H](CCC(=O)O)C(=O)N[C@H](C(=O)NCC(=O)N[C@@H](CO)C(=O)N[C@@H](CO)C(=O)N[C@H](C(=O)N1CCC[C@H]1C(N)=O)[C@@H](C)O)C(C)C)[C@@H](C)O)N(C)C(=O)[C@H](C)NC(=O)CN(C)C(=O)[C@H](Cc1ccccc1)NC(=O)[C@H](CO)NC(=O)[C@H](CO)NC(=O)[C@H](CCCNC(=N)N)NC(=O)[C@@H](NC(=O)[C@H](CC(C)C)NC(=O)[C@H](Cc1ccccc1)NC(=O)[C@H](Cc1c[nH]cn1)NC(=O)[C@H](C)NC(=O)[C@H](CC(C)C)NC(=O)[C@H](CCCNC(=N)N)NC(=O)[C@H](CCC(=O)O)NC(=O)[C@@H](NC(=O)[C@H](C)NC(=O)[C@@H]1CSSC[C@H](NC(=O)[C@H](CCCNC(=N)N)NC(=O)CC[C@H](NC(=O)CCCCCCCCCCCCCCCCCCC(=O)O)C(=O)O)C(=O)NCC(=O)N[C@@H]([C@@H](C)O)C(=O)N[C@@H](C)C(=O)N[C@@H]([C@@H](C)O)C(=O)N1)[C@@H](C)O)[C@@H](C)O [Compound 46, [19CD]-isoGlu-R-C( )-GTAT-C( )-ATERLAHFLTRSSF-Gly(Me)-A-Ile(Me)-LSSTEVGSSTP-NH2] ({C20 diacid-γGlu}-RCGTATCATERLAHFLTRSSF[Sar]A[NMeI]LSSTEVGSSTP-NH2; disulfide 2-7) | 0.1 | 0.14
CC[C@H](C)[C@@H](C(=O)N[C@@H](CC(C)C)C(=O)N[C@@H](CO)C(=O)N[C@@H](CO)C(=O)N[C@H](C(=O)N[C@@H](CCC(=O)O)C(=O)N[C@H](C(=O)NCC(=O)N[C@@H](CO)C(=O)N[C@@H](CCCN)C(=O)N[C@H](C(=O)N1CCC[C@H]1C(N)=O)[C@@H](C)O)C(C)C)[C@@H](C)O)N(C)C(=O)[C@H](C)NC(=O)CN(C)C(=O)[C@H](Cc1ccccc1)NC(=O)[C@H](CO)NC(=O)[C@H](CO)NC(=O)[C@H](CCCNC(=N)N)NC(=O)[C@@H](NC(=O)[C@H](CC(C)C)NC(=O)[C@H](Cc1ccccc1)NC(=O)[C@H](Cc1c[nH]cn1)NC(=O)[C@H](C)NC(=O)[C@H](CC(C)C)NC(=O)[C@H](CCCNC(=N)N)NC(=O)[C@H](CCC(=O)O)NC(=O)[C@@H](NC(=O)[C@H](C)NC(=O)[C@@H]1CSSC[C@H](NC(=O)[C@H](CCCNC(=N)N)NC(=O)CC[C@H](NC(=O)CCCCCCCCCCCCCCCCCCC(=O)O)C(=O)O)C(=O)NCC(=O)N[C@@H]([C@@H](C)O)C(=O)N[C@@H](C)C(=O)N[C@@H]([C@@H](C)O)C(=O)N1)[C@@H](C)O)[C@@H](C)O [Compound 47, [19CD]-isoGlu-R-C( )-GTAT-C( )-ATERLAHFLTRSSF-Gly(Me)-A-Ile(Me)-LSSTEVGS-Orn-TP-NH2] ({C20 diacid-γGlu}-RCGTATCATERLAHFLTRSSF[Sar]A[NMeI]LSSTEVGS[Orn]TP-NH2; disulfide 2-7) | 0.1 | 0.19
